# Where “and” joins values, the source holds several entries; their conditions need not be identical. Equal values may be shown once.
# How the values were obtained:
# [1] = UV absorption (UV λmax and εmax) in solution; assay type: physicochemical
# Text: There follow some examples where the UV λmax and εmax have been measured according to general methods known for the person skilled in the art by way of non-restrictive illustration of the present invention.
compound,measurement,setting,value
"CCCCC(CC)COC(=O)c1ccc(NC2=NC3=NC(Nc4ccc(C(=O)OCC(CC)CCCC)cc4)=NC4=NC(Nc5ccc(C(=O)OCC(CC)CCCC)cc5)=NC(=N2)N34)cc1 (stereo not drawn) [Example 2, 2,5,8-tris-(4-(2-ethylhexyloxycarbonyl)phenylamino)-1,3,4,6,7,9,9b-heptaazaphenalene]",melting point,,183 to 186 °C
same,UV λmax,[1]; CHCl3,326 nm
same,εmax,[1]; CHCl3,95000 M⁻¹ cm⁻¹
"c1ccc2cc(NC3=NC4=NC(Nc5ccc6ccccc6c5)=NC5=NC(Nc6ccc7ccccc7c6)=NC(=N3)N45)ccc2c1 [Example 17, 2,5,8-tris-(naphthalen-2-ylamino)-1,3,4,6,7,9,9b-heptaazaphenalene]",melting point,,> 275 °C
same,UV λmax,[1]; DMSO,279 nm and 331 nm
same,εmax,[1]; DMSO,89000 M⁻¹ cm⁻¹ and 75000 M⁻¹ cm⁻¹
"c1cnn(-c2ccc(NC3=NC4=NC(Nc5ccc(-n6cccn6)cc5)=NC5=NC(Nc6ccc(-n7cccn7)cc6)=NC(=N3)N45)cc2)c1 [Example 15, 2,5,8-tris-(4-(1H-pyrazol-1-yl)phenylamino)-1,3,4,6,7,9,9b-heptaazaphenalene]",melting point,,224 to 227 °C
same,UV λmax,[1]; DMSO,330 nm
same,εmax,[1]; DMSO,99000 M⁻¹ cm⁻¹
"O=C(c1ccccc1)c1ccc(NC2=NC3=NC(Nc4ccc(C(=O)c5ccccc5)cc4)=NC4=NC(Nc5ccc(C(=O)c6ccccc6)cc5)=NC(=N2)N34)cc1 [Example 14, 2,5,8-tris-(4-benzoylphenylamino)-1,3,4,6,7,9,9b-heptaazaphenalene]",melting point,,> 270 °C
same,UV λmax,[1]; DMSO,339 nm
same,εmax,[1]; DMSO,112000 M⁻¹ cm⁻¹
"COC(=O)c1ccc(NC2=NC3=NC(Nc4ccc(C(=O)OC)cc4)=NC4=NC(Nc5ccc(C(=O)OC)cc5)=NC(=N2)N34)cc1 [Example 24, 2,5,8-tris-(4-(methoxycarbonyl)phenylamino)-1,3,4,6,7,9,9b-heptaazaphenalene]",melting point,,288 to 291 °C
same,UV λmax,[1]; DMSO,329 nm
same,εmax,[1]; DMSO,116000 M⁻¹ cm⁻¹
"CCCCCCC(CCCC)COC(=O)c1ccc(NC2=NC3=NC(Nc4ccc(C(=O)OCC(CCCC)CCCCCC)cc4)=NC4=NC(Nc5ccc(C(=O)OCC(CCCC)CCCCCC)cc5)=NC(=N2)N34)cc1 (stereo not drawn) [Example 36, 2,5,8-tris-(4-(2-butyloctyloxycarbonyl)phenylamino)-1,3,4,6,7,9,9b-heptaazaphenalene]",melting point,,215 to 222 °C
same,UV λmax,[1]; CHCl3,326 nm
same,εmax,[1]; CHCl3,119000 M⁻¹ cm⁻¹
"C(=C\c1ccc(NC2=NC3=NC(Nc4ccc(/C=C/c5ccccc5)cc4)=NC4=NC(Nc5ccc(/C=C/c6ccccc6)cc5)=NC(=N2)N34)cc1)/c1ccccc1 [Example 28, 2,5,8-tris-((4-(E)-styrylphenyl)amino)-1,3,4,6,7,9,9b-heptaazaphenalene]",melting point,,> 270 °C
same,UV λmax,[1]; DMSO,367 nm
same,εmax,[1]; DMSO,163000 M⁻¹ cm⁻¹
"CCCCCCCCCCCCCCCCOC(=O)c1ccc(NC2=NC3=NC(Nc4ccc(C(=O)OCCCCCCCCCCCCCCCC)cc4)=NC4=NC(Nc5ccc(C(=O)OCCCCCCCCCCCCCCCC)cc5)=NC(=N2)N34)cc1 [Example 42, 2,5,8-tris-(4-(hexadecyloxycarbonyl)phenylamino)-1,3,4,6,7,9,9b-heptaazaphenalene]",melting point,,252 to 255 °C
same,UV λmax,[1]; DMSO,324 nm
same,εmax,[1]; DMSO,125000 M⁻¹ cm⁻¹
"CCCCC(CC)COC(=O)/C=C/c1ccc(NC2=NC3=NC(Nc4ccc(/C=C/C(=O)OCC(CC)CCCC)cc4)=NC4=NC(Nc5ccc(/C=C/C(=O)OCC(CC)CCCC)cc5)=NC(=N2)N34)cc1 (stereo not drawn) [Example 32, 2,5,8-tris-(4-((E)-3-(2-ethylhexyloxy)-3-oxoprop-1-enyl)phenylamino)-1,3,4,6,7,9,9b-heptaazaphenalene]",melting point,,213 to 216 °C
same,UV λmax,[1]; DMSO,358 nm
same,εmax,[1]; DMSO,154000 M⁻¹ cm⁻¹
"CCCCC(CC)COC(=O)/C=C/c1cccc(NC2=NC3=NC(Nc4cccc(/C=C/C(=O)OCC(CC)CCCC)c4)=NC4=NC(Nc5cccc(/C=C/C(=O)OCC(CC)CCCC)c5)=NC(=N2)N34)c1 (stereo not drawn) [Example 33, 2,5,8-tris-(3-((E)-3-(2-ethylhexyloxy)-3-oxoprop-1-enyl)phenylamino)-1,3,4,6,7,9,9b-heptaazafenaleno]",melting point,,206 to 210 °C
same,UV λmax,[1]; DMSO,290 nm
same,εmax,[1]; DMSO,126000 M⁻¹ cm⁻¹
